“And” between values parts separate entries of the source, which are not always exact repeats. Equal entries are not always repeated.
Columns and labels:
[1] = target: FGFR1 (Homo sapiens, UniProt P11362); assay: ELISA kinase assay (FGFR1 enzymatic assay); format: biochemical; settings: for inhibition at 0.1 µM: 0.1 μmol/L compound; for inhibition at 0.1 µM / inhibition at 1 µM / inhibition at 0.01 µM: read-out: Enzyme Inhibition (%); for inhibition at 1 µM: 1 μmol/L compound; for inhibition at 0.01 µM: 0.01 μmol/L compound; for IC50: mean ± SD, two separate experiments
Experimental: The effects of compounds on the activities of FGFR1 kinases were determined using enzyme-linked immunosorbent assays (ELISAs) with purified recombinant proteins. Briefly, 20 μg/mL poly (Glu, Tyr)4:1 (Sigma, St. Louis, MO, USA) was pre-coated in 96-well plates as a substrate. A 50-μL aliquot of 10 μmol/L ATP solution diluted in kinase reaction buffer (50 mmol/L HEPES [pH 7.4], 50 mmol/L MgCl2, 0.5 mmol/L MnCl2, 0.2 mmol/L Na3VO4, and 1 mmol/L DTT) was added to each well; 1 μL of various concentrations of compounds diluted in 1% DMSO (v/v) (Sigma) were then added to each reaction well. DMSO (1%, v/v) was used as the negative control. The kinase reaction was initiated by the addition of purified tyrosine kinase proteins diluted in 49 μL of kinase reaction buffer. After incubation for 60 min at 37 °C, the plate was washed three times with phosphate-buffered saline (PBS) containing 0.1% Tween 20 (T-PBS). Anti-phosphotyrosine (PY99) antibody (100 μL; 1:500, diluted in 5 mg/mL BSA T-PBS) was then added. After a 30-min incubation at 37 °C, the plate was washed three times, and 100 μL horseradish peroxidase-conjugated goat anti-mouse IgG (1:2000, diluted in 5 mg/mL BSA T-PBS) was added. The plate was then incubated at 37 °C for 30 min and washed 3 times. A 100-μL aliquot of a solution containing 0.03% H2O2 and 2 mg/mL o-phenylenediamine in 0.1 mol/L citrate buffer (pH 5.5) was added. The reaction was terminated by the addition of 50 μL of 2 mol/L H2SO4 as the color changed, and the plate was analyzed using a multi-well spectrophotometer (SpectraMAX 190, Molecular Devices, Palo Alto, CA, USA) at 490 nm. […] The IC50 values were calculated from the inhibition curves in two separate experiments.

Sequence of FGFR1 (P11362 22-822): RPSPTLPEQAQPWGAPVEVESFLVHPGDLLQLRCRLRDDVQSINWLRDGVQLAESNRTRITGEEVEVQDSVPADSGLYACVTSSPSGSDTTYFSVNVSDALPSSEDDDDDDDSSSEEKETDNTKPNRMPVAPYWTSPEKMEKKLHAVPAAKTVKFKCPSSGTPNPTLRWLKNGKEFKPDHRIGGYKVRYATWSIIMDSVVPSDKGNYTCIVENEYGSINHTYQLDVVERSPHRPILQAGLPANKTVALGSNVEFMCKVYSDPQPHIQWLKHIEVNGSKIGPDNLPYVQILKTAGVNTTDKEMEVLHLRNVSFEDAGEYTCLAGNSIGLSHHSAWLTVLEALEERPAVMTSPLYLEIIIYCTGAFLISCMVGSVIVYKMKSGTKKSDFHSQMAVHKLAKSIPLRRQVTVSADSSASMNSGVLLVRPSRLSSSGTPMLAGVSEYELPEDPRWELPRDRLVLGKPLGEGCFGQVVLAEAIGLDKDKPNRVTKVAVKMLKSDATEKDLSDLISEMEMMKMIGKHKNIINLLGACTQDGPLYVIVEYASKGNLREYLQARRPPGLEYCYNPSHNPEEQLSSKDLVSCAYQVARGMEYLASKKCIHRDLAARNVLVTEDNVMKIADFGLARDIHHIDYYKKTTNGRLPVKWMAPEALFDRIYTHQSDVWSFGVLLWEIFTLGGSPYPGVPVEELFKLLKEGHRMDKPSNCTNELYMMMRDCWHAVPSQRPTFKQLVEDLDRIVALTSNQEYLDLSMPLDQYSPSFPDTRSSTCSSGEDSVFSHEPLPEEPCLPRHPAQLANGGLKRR

Compound | inhibition at 0.1 µM [1] | inhibition at 1 µM [1] | inhibition at 0.01 µM [1] | IC50 [1] | melting point
COc1cccc(NC(=O)c2cc(-c3c(Cl)c(OC)cc(OC)c3Cl)cc3[nH]ncc23)c1 [Compound 10d, 6-(2,6-Dichloro-3,5-dimethoxyphenyl)-N-(3-methoxyphenyl)-1H-indazole-4-carboxamide] | 57% | 78.4% | – | – | –
COc1cccc(NC(=O)c2cc(-c3c(Cl)c(OC)cc(OC)c3Cl)cc3[nH]ncc23)n1 [Compound 11a, 6-(2,6-Dichloro-3,5-dimethoxyphenyl)-N-(6-methoxypyridin-2-yl)-1H-indazole-4-carboxamide] | 47.2% | 79.2% | – | – | –
COc1ccc(NC(=O)c2cc(-c3c(Cl)c(OC)cc(OC)c3Cl)cc3[nH]ncc23)cc1 [Compound 10e, 6-(2,6-Dichloro-3,5-dimethoxyphenyl)-N-(4-methoxyphenyl)-1H-indazole-4-carboxamide] | 11.9% | 68.5% | – | – | –
COc1cc(OC)c(Cl)c(-c2cc(C(=O)Nc3ccc(C(C)=O)cc3)c3cn[nH]c3c2)c1Cl [Compound 10c, N-(4-Acetylphenyl)-6-(2,6-dichloro-3,5-dimethoxyphenyl)-1H-indazole-4-carboxamide] | 32.2% | 52.9% | – | – | –
COc1nccc(NC(=O)c2cc(-c3c(Cl)c(OC)cc(OC)c3Cl)cc3[nH]ncc23)n1 [Compound 11e, 6-(2,6-Dichloro-3,5-dimethoxyphenyl)-N-(2-methoxypyrimidin-4-yl)-1H-indazole-4-carboxamide] | 31% | 57.4% | – | – | –
COc1cc(OC)c(Cl)c(-c2cc(C(=O)Nc3ccccc3)c3cn[nH]c3c2)c1Cl [Compound 10a, 6-(2,6-Dichloro-3,5-dimethoxyphenyl)-N-phenyl-1H-indazole-4-carboxamide] | 58.8% | 84.1% | 27.3% | 69.1 ± 19.8 nM | 115 to 117 °C
COc1cc(OC)c(Cl)c(-c2cc(C(=O)Nc3cccc(C(C)=O)c3)c3cn[nH]c3c2)c1Cl [Compound 10b, N-(3-Acetylphenyl)-6-(2,6-dichloro-3,5-dimethoxyphenyl)-1H-indazole-4-carboxamide] | 76.4% | 82.4% | – | – | –
COc1ccnc(NC(=O)c2cc(-c3c(Cl)c(OC)cc(OC)c3Cl)cc3[nH]ncc23)c1 [Compound 11c, 6-(2,6-Dichloro-3,5-dimethoxyphenyl)-N-(4-methoxypyridin-2-yl)-1H-indazole-4-carboxamide] | 42.3% | 80% | – | – | –
COc1cc(NC(=O)c2cc(-c3c(Cl)c(OC)cc(OC)c3Cl)cc3[nH]ncc23)ncn1 [Compound 11d, 6-(2,6-Dichloro-3,5-dimethoxyphenyl)-N-(6-methoxypyrimidin-4-yl)-1H-indazole-4-carboxamide] | 43.1% | 78.5% | – | – | –
COc1cc(NC(=O)c2cc(-c3c(Cl)c(OC)cc(OC)c3Cl)cc3[nH]ncc23)ccn1 [Compound 11b, 6-(2,6-Dichloro-3,5-dimethoxyphenyl)-N-(2-methoxypyridin-4-yl)-1H-indazole-4-carboxamide] | 49.5% | 84.3% | – | – | –

More lines, now with the values ahead:

inhibition at 0.1 µM [1] | inhibition at 1 µM [1] | inhibition at 0.01 µM [1] | IC50 [1] | melting point | Compound
58.7% | – | 28.3% | 54 ± 8.7 nM | 159 to 161 °C | COc1cc(OC)c(Cl)c(-c2cc(C(=O)Nc3cccc(N4CCOCC4)c3)c3cn[nH]c3c2)c1Cl [Compound 12f, 6-(2,6-Dichloro-3,5-dimethoxyphenyl)-N-(3-morpholinophenyl)-1H-indazole-4-carboxamide]
26.4% | – | 13.7% | 328 ± 65.7 nM | – | CCN1CCN(c2cccc(NC(=O)c3cc(-c4c(Cl)c(OC)cc(OC)c4Cl)cc4[nH]ncc34)c2)CC1 [Compound 13b, 6-(2,6-Dichloro-3,5-dimethoxyphenyl)-N-(3-(4-ethylpiperazin-1-yl)phenyl)-1H-indazole-4-carboxamide]
41.3% | – | 35.7% | 464 ± 99.1 nM | – | C=CCN1CCN(c2cccc(NC(=O)c3cc(-c4c(Cl)c(OC)cc(OC)c4Cl)cc4[nH]ncc34)c2)CC1 [Compound 13c, N-(3-(4-Allylpiperazin-1-yl)phenyl)-6-(2,6-dichloro-3,5-dimethoxyphenyl)-1H-indazole-4-carboxamide]
60.9% | – | 45.1% | 78.8 ± 14.2 nM | 221 to 223 °C | COc1cc(OC)c(Cl)c(-c2cc(C(=O)Nc3cccc(N4CCNCC4)c3)c3cn[nH]c3c2)c1Cl [Compound 12g, 6-(2,6-Dichloro-3,5-dimethoxyphenyl)-N-(3-(piperazin-1-yl)phenyl)-1H-indazole-4-carboxamide]
52.7% | – | 34.5% | 102.9 ± 0.6 nM | 188 to 190 °C | COc1cc(OC)c(Cl)c(-c2cc(C(=O)Nc3cccc(-c4cnn(C)c4)c3)c3cn[nH]c3c2)c1Cl [Compound 12h, 6-(2,6-Dichloro-3,5-dimethoxyphenyl)-N-(3-(1-methyl-1H-pyrazol-4-yl)phenyl)-1H-indazole-4-carboxamide]
36.7% | – | 17.2% | – | – | COc1cc(OC)c(Cl)c(-c2cc(C(=O)Nc3cccc(N4CCN(C)C4=O)c3)c3cn[nH]c3c2)c1Cl [Compound 12e, 6-(2,6-Dichloro-3,5-dimethoxyphenyl)-N-(3-(3-methyl-2-oxoimidazolidin-1-yl)phenyl)-1H-indazole-4-carboxamide]
36.8% | – | 9.9% | – | – | CCOC(=O)c1cccc(NC(=O)c2cc(-c3c(Cl)c(OC)cc(OC)c3Cl)cc3[nH]ncc23)c1 [Compound 12c, Ethyl 3-(6-(2,6-dichloro-3,5-dimethoxyphenyl)-1H-indazole-4-carboxamido)benzoate]
64.7% | – | 27.7% | 118 ± 3.9 nM | 209 to 211 °C | COc1cc(OC)c(Cl)c(-c2cc(C(=O)Nc3cccc(N4CCN(C(C)=O)CC4)c3)c3cn[nH]c3c2)c1Cl [Compound 13e, N-(3-(4-Acetylpiperazin-1-yl)phenyl)-6-(2,6-dichloro-3,5-dimethoxyphenyl)-1H-indazole-4-carboxamide]
62.3% | – | 42.1% | 38.6 ± 0.2 nM | 155 to 157 °C | CNC(=O)c1cccc(NC(=O)c2cc(-c3c(Cl)c(OC)cc(OC)c3Cl)cc3[nH]ncc23)c1 [Compound 12b, 6-(2,6-Dichloro-3,5-dimethoxyphenyl)-N-(3-(methylcarbamoyl)phenyl)-1H-indazole-4-carboxamide]
72.7% | – | 48.3% | ~30.2 nM and 30.2 nM | 205 to 207 °C | COc1cc(OC)c(Cl)c(-c2cc(C(=O)Nc3cccc(N4CCN(C)CC4)c3)c3cn[nH]c3c2)c1Cl [Compound 13a, 6-(2,6-Dichloro-3,5-dimethoxyphenyl)-N-(3-(4-methylpiperazin-1-yl)phenyl)-1H-indazole-4-carboxamide]
31.6% | – | 17.4% | – | – | COc1cc(OC)c(Cl)c(-c2cc(C(=O)Nc3cccc([N+](=O)[O-])c3)c3cn[nH]c3c2)c1Cl [Compound 12d, 6-(2,6-Dichloro-3,5-dimethoxyphenyl)-N-(3-nitrophenyl)-1H-indazole-4-carboxamide]
35.7% | – | 17.1% | – | – | COC(=O)c1cccc(NC(=O)c2cc(-c3c(Cl)c(OC)cc(OC)c3Cl)cc3[nH]ncc23)c1 [Compound 12a, Methyl 3-(6-(2,6-dichloro-3,5-dimethoxyphenyl)-1H-indazole-4-carboxamido)benzoate]
60.3% | – | 35.1% | 86.2 ± 17 nM | 177 to 179 °C | COc1cc(OC)c(Cl)c(-c2cc(C(=O)Nc3cccc(-c4cncnc4)c3)c3cn[nH]c3c2)c1Cl [Compound 12i, 6-(2,6-Dichloro-3,5-dimethoxyphenyl)-N-(3-(pyrimidin-5-yl)phenyl)-1H-indazole-4-carboxamide]
18.5% | – | 7.2% | – | – | COc1cc(OC)c(Cl)c(-c2cc(C(=O)Nc3cccc(N4CCN(C(C)C)CC4)c3)c3cn[nH]c3c2)c1Cl [Compound 13d, 6-(2,6-Dichloro-3,5-dimethoxyphenyl)-N-(3-(4-isopropylpiperazin-1-yl)phenyl)-1H-indazole-4-carboxamide]

Reference: paper PMC6273472, “Design, Synthesis and Biological Evaluation of 6-(2,6-Dichloro-3,5-dimethoxyphenyl)-4-substituted-1H-indazoles as Potent Fibroblast Growth Factor Receptor Inhibitors” (Molecules, 2016)
